In PubChem BioAssay AID1417 (Emory University Molecular Libraries Screening Center, 2008) one finds IC50 data, which are given here for 68 compounds.

For this test, the target named is Induced myeloid leukemia cell differentiation protein Mcl-1 (Homo sapiens) (UniProt Q07820). The experiment in a line: Mcl-1 Noxa peptide disruption concentration-response – biochemical, TR-FRET, dose response (AID 1417). Particulars: Mcl-1/Noxa peptide interaction, cell-free TR-FRET (terbium/rhodamine), 2 h; measured here: absolute IC50. A general note: In TR-FRET formats the signal depends on donor and acceptor labels being close together.

The structures appear in SMILES notation. Where only a bound is given, the exact number is not on record here.

One may read the IC50 as the concentration needed to halve the response being measured.

Induced myeloid leukemia cell differentiation protein Mcl-1 (Homo sapiens), sequence (Q07820 whole entry, looked up): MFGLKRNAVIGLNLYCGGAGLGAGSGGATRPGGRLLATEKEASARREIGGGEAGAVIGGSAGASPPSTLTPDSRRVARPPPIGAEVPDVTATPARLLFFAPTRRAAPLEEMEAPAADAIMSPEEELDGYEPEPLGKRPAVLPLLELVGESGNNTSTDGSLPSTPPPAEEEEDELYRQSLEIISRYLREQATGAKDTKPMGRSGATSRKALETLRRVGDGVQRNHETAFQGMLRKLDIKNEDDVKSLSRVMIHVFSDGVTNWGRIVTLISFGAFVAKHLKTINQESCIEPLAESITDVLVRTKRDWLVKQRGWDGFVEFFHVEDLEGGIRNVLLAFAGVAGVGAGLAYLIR

`CCOC(=O)C1CCN(C(=O)Nc2ccc3nc(-c4ccco4)c(-c4ccco4)nc3c2)CC1`: the IC50 was found to be 0.932 µM.
Next, `O=c1oc2ccccc2cc1-c1csc(Nc2ccc(O)cc2)n1`: 0.716 µM; `CCc1c(C)[nH]c2ccc(OC)cc2c1=S`: < 0.4 µM; `CCOC(=O)CSc1nnc2n1C(C)(C)Cc1ccccc1-2`: > 54 µM.
With `COc1ccc(C(c2c(O)cc(C)oc2=O)c2c(O)cc(C)oc2=O)cc1` the figure was > 54 µM; with `Nc1c(O)ccc2c1C(=O)c1ccccc1C2=O`, 43.4 µM.
With `Cc1cc(N/N=C/c2ccc(O)c(C)c2O)nc(-c2ccccc2O)n1` the figure was 3.66 µM.
With `COc1ccc(C(=O)c2sc3nc(-c4ccc(OC)cc4)ccc3c2N)cc1`, the IC50 is > 54 µM.
With `c1coc(-c2nc3ccccc3nc2-c2ccco2)c1` the figure was 5.17 µM; with `Cc1ccc(/C=C/C(=O)Nc2ccc([N+](=O)[O-])c(NC(=O)/C=C/c3ccc(C)o3)c2)o1`, < 0.4 µM; with `CCCCNC(=O)c1ccc2nc(-c3ccco3)c(-c3ccco3)nc2c1`, < 0.4 µM.
Next, `C=CCN1C(=O)/C(=C2/C(=O)N(CC(=O)O)c3ccccc32)S/C1=N/c1nccs1`: < 0.4 µM; `O=C1SC(SCc2ccccc2Cl)=N/C1=C\c1ccc(C(=O)O)cc1`: 4.67 µM; `COc1ccc(/C=N/NC(=O)c2cc(O)c(O)c(O)c2)cc1Cn1cc([N+](=O)[O-])cn1`: < 0.4 µM.
Next, `O=C(Cc1ccc(S(=O)(=O)N2CCOCC2)s1)Nc1nc2c(s1)CCCC2`: 5.18 µM; `CC(=O)Nc1ccc(-c2csc(NC(=O)C3CC(=O)N(c4ccc5c(c4)OCCO5)C3)n2)cc1` (stereo not drawn): 3.25 µM.
On to `Cc1cc(/C=N/n2c(COc3ccccc3C)nc3ccccc3c2=O)c(O)c([N+](=O)[O-])c1`, for which the IC50 turned out to be 4.86 µM.
For `COc1ccc(-c2nn(CCC(=O)O)cc2/C=C2\SC(N)=NC2=O)cc1OC`, the IC50 is 4.36 µM.
With `COc1cc(/C=N/NC(=O)c2cc(-c3ccco3)nc3ccccc23)cc(OC)c1O` the figure was < 0.4 µM.
With `CSc1cnn(Cc2ccccc2)c(=O)c1SCc1ccccc1` the figure was > 54 µM; with `O=C(Cc1csc(N2CCOCC2)n1)N/N=C/c1ccc(O)c(O)c1O`, < 0.4 µM.
For `Cc1cccc(-c2nc(Nc3ccc(N4CCOCC4)cc3)c3ccccc3n2)c1`, the IC50 was < 0.4 µM.
In turn, `CCCCN(CC)CCNc1c(N2CCN(C(=O)OCC)CC2)c(=O)c1=O` yielded an IC50 of 2.17 µM.
Next, `O=C1NN(c2ccc(F)c(Cl)c2)C(=O)/C1=C\c1cccc(OC(=O)c2cccs2)c1`: 6.86 µM; `O=C1CC(=O)c2c1cccc2[N+](=O)[O-]`: 2.56 µM.
With `COc1ccc(C(=O)N2c3ccccc3CC2C)cc1OC` (stereo not drawn) the figure was > 54 µM; with `COc1ccc(S(=O)(=O)Nc2cc(Sc3ncn[nH]3)c(O)c3ccccc23)cc1`, < 0.4 µM.
Next, `CN(C)c1ccc(NC(=O)c2cccc(C(=O)Nc3ccc(N(C)C)cc3)n2)cc1`: 4.03 µM.
Compound `O=C1NN(c2ccccc2)C(=O)/C1=C\c1ccc(-c2cc([N+](=O)[O-])ccc2O)o1` yielded an IC50 of 9.71 µM.
`COc1cc(NS(=O)(=O)c2ccc(NC(=S)NC(=O)c3sc4cc(F)ccc4c3Cl)cc2)nc(OC)n1`: the IC50 is > 54 µM.
For the compound `O=C(O)c1ccc(N/N=C/c2ccc(OC(=O)c3cccc(Cl)c3)cc2)cc1`, the IC50 came out at 7.31 µM.
Regarding `COc1ccc(/C=C2\C(=O)N(c3c(Cl)cc(Cl)cc3Cl)N=C2NC(=O)c2cccc([N+](=O)[O-])c2)cc1`, the IC50 stood at 2.96 µM.
With `Cc1cccc(NC2=C(NC(=O)c3ccccc3)C(=O)c3ccccc3C2=O)c1` the figure was 3.41 µM; with `CCOc1ccc2nc(NC(=O)c3cccc(-c4cc5ccccc5oc4=O)c3)sc2c1`, 3.75 µM.
For `Cn1cc(C(=O)N/N=C/c2ccc([N+](=O)[O-])cc2)c2ccccc21`, the IC50 turned out to be 3.04 µM.
Take `O=C1C(Cl)=C(N2CCCCC2)C(=O)C(Cl)=C1c1cnc(N2CCCCC2)s1`: the IC50 was < 0.4 µM.
Regarding `Cc1cc(N=Cc2c(O)ccc3cc(Br)ccc23)no1`, the IC50 is 53.5 µM.
Next, `Cc1c(C(=O)N/N=C/c2ccc(-c3ccccc3[N+](=O)[O-])o2)sc(N)c1C#N`: 1.69 µM.
Next, `CC(=O)Oc1ccc(NC(=O)CSc2ccccc2)cc1`: > 54 µM; `COC(=O)c1cc(-c2ccc(C)o2)nc2ccccc12`: 14.8 µM.
With `CC1=NN(C(N)=S)C(=O)C1N=Nc1ccc(O)cc1` (stereo not drawn) the figure was 11.2 µM; with `CCNc1ccc(Br)cc(C(=O)/C=C/c2ccc(Cl)cc2Cl)c1=O`, 4.19 µM.
On to `COc1ccc(CC(=O)n2[nH]c(=O)ccc2=O)cc1OC`, for which the IC50 was < 0.4 µM.
For `O=C1CSC(=S)N1/N=C/c1ccc(O)c(O)c1O`, the IC50 was < 0.4 µM.
For the compound `Cc1nc(COC(=O)c2cc(O)c3ccccc3c2O)cs1`, the half-inhibitory concentration (IC50) was < 0.4 µM.
Compound `O=C(Nc1nccs1)c1cc(-c2ccco2)nc2ccccc12` registered an IC50 of 1.4 µM.
`O=C(O)c1cccc(-c2ccc(/C=c3/sc4nc5ccccc5n4c3=O)o2)c1` yielded an IC50 of 1.02 µM.
With `CC(C)N1CCc2c(sc(NC(=O)c3cc4cc([N+](=O)[O-])ccc4s3)c2C(N)=O)C1` the figure was 3.95 µM; with `S=C(NNc1ccnc2cc(Cl)ccc12)Nc1ccc(Cl)cc1Cl`, 6.37 µM; with `COCCn1nnnc1C(c1ccc(O)c(OC)c1)N1CCc2ccccc2C1` (stereo not drawn), < 0.4 µM.
With `O=C(c1ccc2nc(-c3ccco3)c(-c3ccco3)nc2c1)N1CCN(c2ncccn2)CC1` the figure was 12.6 µM.
Next, `O=C1N/C(=N/Nc2ccccc2)S/C1=C\c1ccccc1`: > 54 µM.
On to `O=C(O)c1cccc(Cn2c(Cl)c(/C=N/NC(=O)c3cc4ccccc4cc3O)sc2=O)c1`, for which the IC50 worked out at 3.35 µM.
`O=C(Nc1cccc(Cl)c1)Nc1nnc(-c2ccncc2)s1` returned an IC50 of 4.03 µM.
Regarding `CN(C)c1ccc(C(CNC(=O)c2ccc(F)cc2)c2c[nH]c3ccccc23)cc1` (stereo not drawn), the IC50 was > 54 µM.
Consider `O=C(O)COc1ccccc1C(Nc1ccccn1)c1cc(Cl)c2cccnc2c1O` (stereo not drawn), for which the 50% inhibitory concentration (IC50) was < 0.4 µM.
The compound `CCCCCn1c(N)c(-c2nc3ccccc3o2)c2c([N+](=O)[O-])nn(CC)c(=O)c21` came in with a half-inhibitory concentration (IC50) of 2.8 µM.
As for `Cc1ccc(-n2nc(C)cc2NC(=O)COc2cc(C)cc3oc(=O)c4c(c23)CCC4)cc1`, the IC50 is > 54 µM.
Next, `O=C(NCCO)c1ccc2nc(-c3ccco3)c(-c3ccco3)nc2c1`: 0.527 µM.
With `O=C(/C=C1\NC2(CCCC2)Cc2ccccc21)C(=O)N/N=C/c1ccc(O)c(O)c1`, the IC50 is 3.47 µM.
For the compound `COc1ccc(NC(=O)Cn2ncc(Cl)c(Cl)c2=O)cc1S(=O)(=O)N1CCOCC1`, the half-inhibitory concentration (IC50) worked out at 4.88 µM.
In turn, `O=C(/C=C/c1ccco1)Nc1ccc2nn(-c3ccccc3)nc2c1` showed an IC50 of 3.24 µM.
With `CSc1nc(NCCOCCO)c2sc3nc(-c4ccco4)c4c(c3c2n1)CCC4` the figure was < 0.4 µM; with `Clc1cccc(/C=N/Nc2nc(Cl)nc3ccccc23)c1`, > 54 µM.
Regarding `Cc1ccc(S(=O)(=O)/N=C2/C=C(Sc3ncn[nH]3)C(=O)c3ccccc32)cc1`, the half-inhibitory concentration (IC50) is < 0.4 µM.
With `COc1cccc2c(=O)c3cccc(N)c3[nH]c12` the figure was > 54 µM; with `Oc1ccc(/C=N/n2cc(-c3ccccc3)[nH]c2=S)cc1`, < 0.4 µM.
For `O=c1c2ccccc2nc(-c2ccco2)n1-c1cccnc1`, the IC50 is > 54 µM.
